Measurements from patent publication US20030040521A1, “Novel pyrimidin-4-enamine as fungicide” (priority 1998, published 2003).

Tests used:
[1] = system: Colletotrichum Lagenarium; assay: Action against Colletotrichum lagenarium on cucumbers; format: in vivo; conditions: cucumber plants, spray mixture 0.002%, infected 2 days later, evaluation 8 days after infection
Method: Action Against Colletotrichum Lagenarium on Cucumbers After a growth period of 2 weeks, cucumber plants are sprayed with an aqueous spray mixture (concentration 0.002%) prepared from a wettable powder formulation of the test compound and infected 2 days later with a spore suspension (1.5×10^5 spores/ml) of the fungus and incubated for 36 hours at 23° C. and high humidity. Incubation is then continued at normal humidity and c. 22° C. Evaluation of the fungal infestation is made 8 days after infection.

Venturia Naegualis = assay: Residual-protective action against Venturia inaequalis on apples; format: in vivo; conditions: apple cuttings, spray mixture 0.02% a.i., infected 24 hours later, evaluation 12 days after infection
Method: Residual-protective Action Against Venturia Naegualis on Apples
Apple cuttings with fresh shoots 10 to 20 cm long are sprayed to drip point with a spray mixture (0.02% a.i.) prepared from a wettable powder formulation of the test compound. The plants are infected 24 hours later with a conidia suspension of the fungus. The plants are then incubated for 5 days at 90 to 100% relative humidity and stood in a greenhouse for a further […] at 20 to 24° C. Evaluation of the fungal infestation is made 12 days after infection. Compounds of Tables 1-4 show good activity, preferably the compounds 1.72, 1.81, 1.152, 1.160, 2.11, 3.6, 4.3, 4.5, 4.6, 4.27, 4.29, 4.30, 4.36, 4.38, 4.39, 4.43, 4.45, 4.62, 4.80 and 4.111.

melting point [°C]	Structure (SMILES)	activity against Colletotrichum lagenarium (fungal infestation) [1]	residual-protective activity against Venturia on apples (fungal infestation) (Venturia Naegualis)
	C=CCN=c1c2cc(Cl)sc2nc(OCCC)n1CCC [Compound 4.62]	good to excellent activity	good activity
	CCCOc1nc2sc(Cl)cc2c(=NCC)n1CCC [Compound 4.45]	good to excellent activity	good activity
	CCCCn1c(OCCC)nc2sc(Cl)cc2c1=NC [Compound 4.30]	good to excellent activity	good activity
103 to 104	CCCCc1nc2sc(Cl)cc2c(=NC(=O)OC)n1CCCC [Compound 4.119, (6-chloro-2-butyl-3-butyl-3H-thieno[2,3-d]pyrimidine-4-ylidene)carbamic acid methylester]		
61 to 63	CCCOc1nc2sccc2c(=N)n1CCC [Compound 4.5]	good to excellent activity	good activity
	CCCCn1c(OCCC)nc2sccc2c1=N [Compound 4.6]	good to excellent activity	good activity
	CCCOc1nc2c(Br)csc2c(=NC)n1CCC [Compound 3.6]	good to excellent activity	good activity
58 to 60	CCCCc1nc2ccc(Cl)cc2c(=NC)n1CCC [Compound 1.72]	good to excellent activity	good activity
	CCCCn1c(OCCC)nc2sc(Br)cc2c1=NC [Compound 4.39]	good to excellent activity	good activity
98 to 99	CCCCc1nc2sc(Cl)cc2c(=NC(C)=O)n1CCC [Compound 4.139, N-(6-chloro-2-butyl-3-propyl-3H-thieno[2,3-d]pyrimidine-4-ylidene)acetamide]		
	CCCOc1nc2ncc(Br)cc2c(=N)n1CCC [Compound 2.11]	good to excellent activity	good activity
	CCCCc1nc2sc(Cl)cc2c(=NCC)n1CCC [Compound 4.43]	good to excellent activity	good activity
53 to 55	CCCOC1=Nc2ccc(Cl)cc2C(=CN)N1CCC [Compound 1.74, (6-chloro-2-propoxy-3-propyl-3H-quinazolin-4-ylidene)methylamine]		
	CCCOc1nc2sc(Br)cc2c(=NC)n1CCC [Compound 4.38, (6-Bromo-3-propyl-2-propoxy-3H-thieno[2,3-d]pyrimidine-4-ylidene)methylamine]	good to excellent activity	good activity
	CCCCc1nc2sccc2c(=N)n1CCC [Compound 4.3]	good to excellent activity	good activity
101 to 103	CCCOc1nc2sc(Cl)cc2c(=NC(C)=O)n1CCC [Compound 4.137, N-(6-chloro-2-propoxy-3-propyl-3H-thieno[2,3-d]pyrimidine-4-ylidene)acetamide]		
61 to 64	CCCCc1nc2ccc(Br)cc2c(=NC)n1CCC [Compound 1.81]	good to excellent activity	good activity
	CCCOc1nc2sc(Cl)cc2c(=NCl)n1CCC [Compound 4.111]	good to excellent activity	good activity
	C#CCN=c1c2cc(Cl)sc2nc(OCCC)n1CCC [Compound 4.80]	good to excellent activity	good activity
	CCCCN=c1c2cc(Cl)ccc2nc(OCCC)n1CCCC [Compound 1.160]	good to excellent activity	good activity
50 to 51	CCCN=c1c2cc(Cl)ccc2nc(OCCC)n1CCC [Compound 1.152, (6-Chloro-2-propoxy-3-propyl-3H-quinazoline-4-ylidene)propylamine]	good to excellent activity	good activity
	CCCCc1nc2sc(Cl)cc2c(=NC)n1CCC [Compound 4.27, (2-Butyl-6-chloro-3-propyl-3H-thieno [2,3-d]pyrimidine-4-ylidene)methylamine]	good to excellent activity	good activity
